# Reference: PubChem BioAssay (NCI)
#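 Cultured in 96-well plates, cells were exposed to test compound for 48 hours across five concentrations. GI50 is the concentration that inhibits growth by half. TGI: concentration producing complete growth inhibition.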
# Legend:
# Test in all cases: NCI anticancer screen, dose series, 48 h
# [1] = test system: SK-MEL-5 melanoma
# [2] = test system: CAKI-1 renal
# [3] = test system: NCI-H23 lung
# [4] = test system: UACC-257 melanoma
# [5] = test system: K-562 leukemia
# [6] = test system: OVCAR-5 ovarian
# [7] = test system: HOP-92 NSCLC
# [8] = test system: SN12C renal
# [9] = test system: MCF7 breast
# [10] = test system: HS 578T breast
SMILES,TGI [1] [µM],TGI [2] [µM],TGI [3] [µM],TGI [4] [µM],TGI [5] [µM],TGI [6] [µM],TGI [7] [µM],TGI [8] [µM],TGI [9] [µM],TGI [10] [µM],GI50 [1] [µM],GI50 [2] [µM],GI50 [3] [µM],GI50 [5] [µM],GI50 [6] [µM],GI50 [9] [µM],GI50 [10] [µM],GI50 [8] [µM],GI50 [7] [µM]
CCOC(=O)c1cc(I)c(-c2cc(C)no2)n1C,> 100,54.7,> 100,> 100,> 100,> 100,> 100,69.4,,,,,,,,,,,
O=C(CCCCCCCCC(=O)N1C(=O)CC(=O)N(c2ccccc2)C1=S)N1C(=O)CC(=O)N(c2ccccc2)C1=S,> 100,> 100,> 100,> 100,,> 100,> 100,> 100,> 100,> 100,,,,,,,,,
COc1cc(C2=NNC(=O)c3ccccc3N2c2nc(-c3cccs3)nc3ccc(Br)cc23)cc(OC)c1OC,50.4,73.1,53.4,> 100,,> 100,27.7,> 100,7.28,44.1,,,,,,,,,
C=CCN1C(=O)/C(=C/c2ccco2)N=C1SC1OC(COC(C)=O)C(OC(C)=O)C(OC(C)=O)C1OC(C)=O (configuration not stated),> 100,> 100,> 100,> 100,> 100,> 100,> 100,,> 100,,,,,,,,,,
O=C1C=CC(=C(c2ccc(O)cc2)c2ccc(O)cc2)C=C1,19.8,32.7,21.2,21.7,14.2,32.3,9.27,21,,,,,,,,,,,
CCOP(=O)(OCC)C(c1ccccc1)N(C(=O)NC(F)(F)F)c1cccc(F)c1 (configuration not stated),> 100,> 100,> 100,> 100,> 100,,,> 100,> 100,> 100,,,,,,,,,
Nc1ccccc1.[C-]#[O+].[C-]#[O+].[C-]#[O+].[C-]#[O+].[C-]#[O+].[Cr],3.34,8.3,> 10,,> 10,> 10,,> 10,> 10,> 10,1.53,2.04,3.67,2.98,> 10,2.43,3.28,3.9,
O=c1[nH]c(=O)n(C2CC(O)C(CO)O2)cc1NN=NCCCc1ccccc1 (configuration not stated),> 100,> 100,> 100,> 100,,> 100,> 100,> 100,> 100,> 100,,,,,,,,,
CC(C)CCCC(C)[C@H]1CC[C@H]2[C@@H]3CC[C@H]4C[C@@H](CCC=C(c5cc(Cl)c(O)c(C(=O)OC(C)C)c5)c5cc(Cl)c(O)c(C(=O)OC(C)C)c5)CC[C@]4(C)[C@H]3CC[C@]12C (some centres not stated),> 50,> 50,> 50,,> 50,> 50,> 50,> 50,> 50,> 50,,,,,,,,,
CN(C)c1ccc(C=C2C(=O)N(c3ccccc3)N(c3ccccc3)C2=O)cc1,> 100,,> 100,,> 100,> 100,65.1,> 100,> 100,> 100,,,,,,,,,
C(/Cc1ccc2c(c1)OCO2)=N\NC1=NCCN1,> 100,,> 100,> 100,> 100,> 100,> 100,> 100,> 100,> 100,,,,,,,,,
CCN(CC)C(=S)Nc1ccc(-c2cc3ccc(O)cc3oc2=O)cc1,48.8,> 100,> 100,48.4,> 100,79.5,,> 100,,71.6,,,,,,,,,
Cc1c(-c2ccccc2)nn2cc(-c3ccccc3)nnc12,41.4,> 100,> 100,> 100,> 100,> 100,88.3,> 100,,75.6,,,,,,,,,
O=C1C=C2SC3C[C@@]24CC1[N+]1=c2c4c(c(O)c4c2=C(C=N4)CC1)N3,3.44,7.99,,3.17,8.26,3.9,> 100,6.95,4.23,,,,,,,,,,
O=c1cc(NNc2cccc(F)c2)[nH]c(=O)[nH]1,> 100,29.9,> 100,34.8,84.4,> 100,30,> 100,,> 100,,,,,,,,,
COc1cc(C2c3cc4c(cc3OC(Nc3ccccc3)C2C)OCO4)cc(OC)c1O (configuration not stated),10.7,> 100,33.5,34,7.49,26.2,48.7,21.2,24.6,,,,,,,,,,
COc1ccc(-c2ccc(-c3ccc(C(=N)N)nc3)s2)cc1Cl,3.32,3.12,,,,3.32,3.41,,,,1.82,1.74,,,1.86,,,,1.63

SMILES,TGI [1] [µM],TGI [2] [µM],TGI [3] [µM],TGI [4] [µM],TGI [5] [µM],TGI [6] [µM],TGI [7] [µM],TGI [8] [µM],TGI [9] [µM],TGI [10] [µM],GI50 [1] [µM],GI50 [2] [µM],GI50 [3] [µM],GI50 [5] [µM],GI50 [6] [µM],GI50 [9] [µM],GI50 [10] [µM],GI50 [8] [µM],GI50 [7] [µM]
CN(CCO)CCCC1COc2ccccc2O1 (configuration not stated),> 100,> 100,> 100,> 100,> 100,> 100,> 100,> 100,> 100,,,,,,,,,,
O=c1[nH]c2ccccc2c(O)c1/C=N/C(=S)NCc1ccccc1,> 100,> 100,> 100,> 100,,> 100,> 100,> 100,> 100,,,,,,,,,,
CCCCCCNC(=O)CCC(NC(=O)c1ccc(N(C)Cc2cnc3nc(N)nc(N)c3n2)cc1)C(=O)NCCCCCC (configuration not stated),> 100,> 100,> 100,> 100,> 100,> 100,> 100,> 100,34.1,,,,,,,,,,
COc1cc([C@@H]2c3cc4c(cc3[C@@H](Nc3ccccc3C(=O)c3ccccc3)[C@H]3COC(=O)[C@H]23)OCO4)cc(OC)c1OC,2.93,> 100,> 100,> 100,> 100,> 100,,> 100,> 100,> 100,,,,,,,,,
CC1(C)C(CCO)CC1n1cc(I)c(=O)[nH]c1=O (configuration not stated),> 100,> 100,,> 100,> 100,> 100,> 100,> 100,> 100,> 100,,,,,,,,,
CCOC(=O)c1nc2ccccc2nc1Oc1ccc(C(=O)OC)cc1,> 100,> 100,,> 100,> 100,> 100,> 100,> 100,> 100,> 100,,,,,,,,,
COc1ccc(NC(=O)CC(=O)n2nc(C)c(N=Nc3cccc(C)c3)c2C)cc1,> 100,> 100,> 100,,,> 100,> 100,> 100,> 100,> 100,,,,,,,,,
Cc1ccc(-n2cc(-c3ccc(Cl)cc3)c3c(N/N=C4\SCC(=O)N4C)ncnc32)cc1,15.5,32.3,45.7,27.1,> 100,> 100,8.24,> 100,,21.3,,,,,,,,,
COc1ccc2c(c1)C/C(=C\c1cccc3ccccc13)C2=O,> 100,> 100,24.2,,> 100,> 100,,> 100,> 100,> 100,,,,,,,,,
CCOC(=O)c1c(Br)c(-c2ccc(OC)cc2)c(Br)n1C,22.4,,> 100,95.8,38.3,> 100,14.1,49.2,39.7,47.6,,,,4.04,,15.9,,,0.0721
CSC1C(=O)Nc2ccc3ccccc3c21 (configuration not stated),57.4,38.9,> 100,44.8,,> 100,40.6,41.9,> 100,46,,,,,,,,,
O=C(c1ccccc1)n1cc(-c2ccccc2)c2c(=O)[nH]cnc21,> 100,> 100,> 100,> 100,,> 100,> 100,> 100,> 100,> 100,,,,,,,,,
CC1(C)C(=O)c2ccccc2OC1N1CCN(C2Oc3ccccc3C(=O)C2(C)C)CC1 (configuration not stated),> 100,> 100,> 100,,> 100,> 100,> 100,> 100,> 100,> 100,,,,,,,,,
O=S(OC12CC3CC(CC(C3)C1)C2)c1cc(Cl)cc(Cl)c1OCc1ccccc1 (configuration not stated),,,> 100,> 100,> 100,> 100,,> 100,,,,,,,,,,,
CCO[C@@]1(COCc2ccccc2)OC(=O)C[C@@H]1N1C(=O)OC[C@@H]1c1ccccc1,> 100,76.4,> 100,> 100,> 100,> 100,> 100,> 100,> 100,,,,,,,,,,
Cc1ccc2c(=O)c(C(=O)Nn3c(C)csc3=S)c[nH]c2n1,> 100,> 100,> 100,> 100,> 100,> 100,,> 100,> 100,> 100,,,,,,,,,
